# Results: patent publication US11236078B2, “Heterocyclic inhibitors of the sodium channel” (priority 2014, dated 2022)
# Assays:
# Format in all cases: cell-based
# human Nav1.7 (hNav1.7) [1] = target: T1, human Nav1.7 (hNav1.7) (Homo sapiens, UniProt Q15858); assay: hNav1.7 slow inactivation block, manual patchclamp; conditions: HEK 293F cells stably expressing hNav1.7, slow inactivation induced in approximately 50% of channels
# T1 construct: expressed in transfected cells
# Description: (§1) The generation of HEK 293F cell lines stably expressing human Nav1.7 (h Nav1.7), human Nav1.5 (hNav1.5) and rat Nav1.2 (r Nav1.2) was achieved by subcloning SCN9A, SCN5A, and SCN2A genes into inducible expression vectors followed by transfection into target cells using standard techniques. In the case of h Nav1.7, an expression vector encoding the human Navβ1 auxiliary subunit gene, SCN1B, was co-transfected with the expression vector bearing the SCN9A gene. Clones were selected using appropriate selection agents (0.3 mg/mL Zeocin and 0.8 mg/mL Geneticin) and maintained in Dulbecco's Modified Eagle medium, 10% fetal bovine serum, 1% non-essential amino acids to ˜80% confluence at 37° C. in a humidified incubator with 95% atmosphere and 5% CO2.
# (§2) On the day of each experiment, cells that were grown to 80% confluence in a T75 flask were harvested for use on PatchXpress (Molecular Devices, CA, USA). Following a recovery period at 37° C. in a humidified incubator with 95% atmosphere and 5% CO2 in Dulbecco's Modified Eagle Medium, the media was replaced with an external recording solution containing (in mM): 90 TEACl, 50 NaCl, 1.8 CaCl2, 1 MgCl2, 10 HEPES, 10 glucose, adjusted to pH 7.4 with TEAOH and 300 mOsm with sucrose. The internal recording solution contained (in mM): 129 CsF, 2 MgCl2, 11 EGTA, 10 HEPES, 6 NaCl, 3 Na2ATP adjusted to pH 7.2 with CsOH and 280 mOsm with sucrose. The automated liquid handling facility of PatchXpress dispensed cells and added compound. Modulation of Nav1.7 channels by compounds was assessed by promoting the channels into the inactivated state using a conditioning voltage pulse of variable amplitude, followed by a brief hyperpolarizing pulse with a subsequent depolarized voltage step to measure the current amplitude in the presence and absence of compound.
# (§3) In some cases, the potency of compounds was measured using either the Patchliner automated patch clamp platform (Nanion) or manual patch clamp techniques. Both approaches allowed the compounds to be characterized based upon the ability of a compound to modulate use- and/or state-dependence across human Nav1.7 (hNav1.7), human Nav1.5 (hNav1.5) and rat Nav1.2 (rNav1.2). The potency data is tabulated in Table 2 and is represented by six data fields. Three of the six fields represent potency data measured with the Patchliner automated platform under varying use- and state-dependent electrophysiology protocols similar to the PatchXpress protocols detailed above. For example, the second data column describes the potency of compounds in their ability to block 50% of Nav1.7 channels when the channel is repetitively activated by depolarizing voltage potentials to induce slow inactivation in approximately 50% of channels (Table 2: h Nav1.7: IC50 Slow Inactivation Block, Automated Patchclamp). The next three data fields describe the data generated from manual patchclamp electrophysiology measurements using similar methods to those employed for automated patchclamp studies.
# human Nav1.5 (hNav1.5) = target: T2, human Nav1.5 (hNav1.5) (Homo sapiens, UniProt Q14524); assay: hNav1.5 slow inactivation block, manual patchclamp; conditions: HEK 293F cells stably expressing hNav1.5
# T2 construct: expressed in transfected cells
# Description: as §1, with “CO2. […]” for “CO2.”
# as §2, §3
# human Nav1.7 (hNav1.7) [2] = target: T1, human Nav1.7 (hNav1.7); assay: hNav1.7 slow inactivation block, automated patchclamp; conditions: HEK 293F cells stably expressing hNav1.7, slow inactivation induced in approximately 50% of channels
# Description: as §1, §2, §3
# rat Nav1.2 (rNav1.2) [3] = target: T3, rat Nav1.2 (rNav1.2) (Rattus norvegicus, UniProt P04775); assay: rNav1.2 slow inactivation block, manual patchclamp; conditions: HEK 293F cells stably expressing rNav1.2
# T3 construct: expressed in transfected cells
# Description: as §1, §2, §3
# rat Nav1.2 (rNav1.2) [4] = target: T3, rat Nav1.2 (rNav1.2); assay: rNav1.2 slow inactivation block, automated patchclamp; conditions: HEK 293F cells stably expressing rNav1.2
# Description: as §1, §2, §3
# T3 sequence (P04775 whole entry): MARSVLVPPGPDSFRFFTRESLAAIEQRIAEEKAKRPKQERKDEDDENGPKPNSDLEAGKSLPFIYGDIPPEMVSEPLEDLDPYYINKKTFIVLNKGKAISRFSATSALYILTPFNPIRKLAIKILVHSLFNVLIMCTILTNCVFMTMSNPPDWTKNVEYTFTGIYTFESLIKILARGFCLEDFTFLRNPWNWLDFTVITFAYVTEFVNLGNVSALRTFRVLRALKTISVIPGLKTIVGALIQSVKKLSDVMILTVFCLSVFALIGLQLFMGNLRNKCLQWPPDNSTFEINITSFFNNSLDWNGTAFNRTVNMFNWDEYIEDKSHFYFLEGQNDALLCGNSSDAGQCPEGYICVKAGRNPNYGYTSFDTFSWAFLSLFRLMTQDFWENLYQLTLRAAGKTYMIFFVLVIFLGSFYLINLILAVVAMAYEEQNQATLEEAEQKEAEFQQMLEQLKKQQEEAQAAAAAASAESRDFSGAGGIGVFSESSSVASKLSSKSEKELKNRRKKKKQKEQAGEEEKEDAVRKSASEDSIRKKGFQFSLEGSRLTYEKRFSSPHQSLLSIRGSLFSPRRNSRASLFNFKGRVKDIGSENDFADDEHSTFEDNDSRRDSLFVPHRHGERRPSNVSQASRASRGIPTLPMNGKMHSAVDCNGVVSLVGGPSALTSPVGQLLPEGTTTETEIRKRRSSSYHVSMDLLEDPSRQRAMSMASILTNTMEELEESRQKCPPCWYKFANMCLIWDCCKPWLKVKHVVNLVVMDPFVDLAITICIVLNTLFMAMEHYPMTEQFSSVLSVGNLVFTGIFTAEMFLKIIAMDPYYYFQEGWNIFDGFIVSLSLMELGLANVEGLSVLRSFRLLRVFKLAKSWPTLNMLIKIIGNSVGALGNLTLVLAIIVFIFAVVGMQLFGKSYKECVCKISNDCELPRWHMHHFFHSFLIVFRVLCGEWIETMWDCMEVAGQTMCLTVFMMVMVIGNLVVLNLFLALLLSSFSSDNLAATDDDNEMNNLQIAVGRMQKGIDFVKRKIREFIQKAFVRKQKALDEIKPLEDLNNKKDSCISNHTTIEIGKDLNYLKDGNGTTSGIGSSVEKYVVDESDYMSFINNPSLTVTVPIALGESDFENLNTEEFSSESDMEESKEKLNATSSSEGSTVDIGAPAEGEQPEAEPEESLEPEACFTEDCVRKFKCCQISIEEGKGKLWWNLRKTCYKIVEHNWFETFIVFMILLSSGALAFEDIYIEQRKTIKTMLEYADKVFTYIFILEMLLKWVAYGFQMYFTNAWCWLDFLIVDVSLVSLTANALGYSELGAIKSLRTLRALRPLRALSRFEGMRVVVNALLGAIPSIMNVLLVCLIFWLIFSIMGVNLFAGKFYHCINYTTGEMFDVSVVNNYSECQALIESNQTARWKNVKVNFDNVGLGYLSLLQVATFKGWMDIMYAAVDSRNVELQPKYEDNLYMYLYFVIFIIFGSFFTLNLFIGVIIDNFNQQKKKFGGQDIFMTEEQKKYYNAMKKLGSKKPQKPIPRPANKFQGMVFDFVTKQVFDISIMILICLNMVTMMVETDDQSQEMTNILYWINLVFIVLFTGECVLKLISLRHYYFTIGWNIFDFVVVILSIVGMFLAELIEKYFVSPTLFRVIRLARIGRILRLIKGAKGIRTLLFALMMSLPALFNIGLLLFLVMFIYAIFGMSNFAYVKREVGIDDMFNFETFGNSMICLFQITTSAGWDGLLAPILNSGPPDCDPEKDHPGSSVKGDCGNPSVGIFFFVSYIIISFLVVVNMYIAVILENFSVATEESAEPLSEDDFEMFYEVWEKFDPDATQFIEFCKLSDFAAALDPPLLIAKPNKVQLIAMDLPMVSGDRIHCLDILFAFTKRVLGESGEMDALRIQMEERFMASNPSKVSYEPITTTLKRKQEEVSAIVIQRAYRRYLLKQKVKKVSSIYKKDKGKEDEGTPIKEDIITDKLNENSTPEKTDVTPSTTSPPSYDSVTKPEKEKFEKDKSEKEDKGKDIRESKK
# T2 sequence (Q14524 whole entry): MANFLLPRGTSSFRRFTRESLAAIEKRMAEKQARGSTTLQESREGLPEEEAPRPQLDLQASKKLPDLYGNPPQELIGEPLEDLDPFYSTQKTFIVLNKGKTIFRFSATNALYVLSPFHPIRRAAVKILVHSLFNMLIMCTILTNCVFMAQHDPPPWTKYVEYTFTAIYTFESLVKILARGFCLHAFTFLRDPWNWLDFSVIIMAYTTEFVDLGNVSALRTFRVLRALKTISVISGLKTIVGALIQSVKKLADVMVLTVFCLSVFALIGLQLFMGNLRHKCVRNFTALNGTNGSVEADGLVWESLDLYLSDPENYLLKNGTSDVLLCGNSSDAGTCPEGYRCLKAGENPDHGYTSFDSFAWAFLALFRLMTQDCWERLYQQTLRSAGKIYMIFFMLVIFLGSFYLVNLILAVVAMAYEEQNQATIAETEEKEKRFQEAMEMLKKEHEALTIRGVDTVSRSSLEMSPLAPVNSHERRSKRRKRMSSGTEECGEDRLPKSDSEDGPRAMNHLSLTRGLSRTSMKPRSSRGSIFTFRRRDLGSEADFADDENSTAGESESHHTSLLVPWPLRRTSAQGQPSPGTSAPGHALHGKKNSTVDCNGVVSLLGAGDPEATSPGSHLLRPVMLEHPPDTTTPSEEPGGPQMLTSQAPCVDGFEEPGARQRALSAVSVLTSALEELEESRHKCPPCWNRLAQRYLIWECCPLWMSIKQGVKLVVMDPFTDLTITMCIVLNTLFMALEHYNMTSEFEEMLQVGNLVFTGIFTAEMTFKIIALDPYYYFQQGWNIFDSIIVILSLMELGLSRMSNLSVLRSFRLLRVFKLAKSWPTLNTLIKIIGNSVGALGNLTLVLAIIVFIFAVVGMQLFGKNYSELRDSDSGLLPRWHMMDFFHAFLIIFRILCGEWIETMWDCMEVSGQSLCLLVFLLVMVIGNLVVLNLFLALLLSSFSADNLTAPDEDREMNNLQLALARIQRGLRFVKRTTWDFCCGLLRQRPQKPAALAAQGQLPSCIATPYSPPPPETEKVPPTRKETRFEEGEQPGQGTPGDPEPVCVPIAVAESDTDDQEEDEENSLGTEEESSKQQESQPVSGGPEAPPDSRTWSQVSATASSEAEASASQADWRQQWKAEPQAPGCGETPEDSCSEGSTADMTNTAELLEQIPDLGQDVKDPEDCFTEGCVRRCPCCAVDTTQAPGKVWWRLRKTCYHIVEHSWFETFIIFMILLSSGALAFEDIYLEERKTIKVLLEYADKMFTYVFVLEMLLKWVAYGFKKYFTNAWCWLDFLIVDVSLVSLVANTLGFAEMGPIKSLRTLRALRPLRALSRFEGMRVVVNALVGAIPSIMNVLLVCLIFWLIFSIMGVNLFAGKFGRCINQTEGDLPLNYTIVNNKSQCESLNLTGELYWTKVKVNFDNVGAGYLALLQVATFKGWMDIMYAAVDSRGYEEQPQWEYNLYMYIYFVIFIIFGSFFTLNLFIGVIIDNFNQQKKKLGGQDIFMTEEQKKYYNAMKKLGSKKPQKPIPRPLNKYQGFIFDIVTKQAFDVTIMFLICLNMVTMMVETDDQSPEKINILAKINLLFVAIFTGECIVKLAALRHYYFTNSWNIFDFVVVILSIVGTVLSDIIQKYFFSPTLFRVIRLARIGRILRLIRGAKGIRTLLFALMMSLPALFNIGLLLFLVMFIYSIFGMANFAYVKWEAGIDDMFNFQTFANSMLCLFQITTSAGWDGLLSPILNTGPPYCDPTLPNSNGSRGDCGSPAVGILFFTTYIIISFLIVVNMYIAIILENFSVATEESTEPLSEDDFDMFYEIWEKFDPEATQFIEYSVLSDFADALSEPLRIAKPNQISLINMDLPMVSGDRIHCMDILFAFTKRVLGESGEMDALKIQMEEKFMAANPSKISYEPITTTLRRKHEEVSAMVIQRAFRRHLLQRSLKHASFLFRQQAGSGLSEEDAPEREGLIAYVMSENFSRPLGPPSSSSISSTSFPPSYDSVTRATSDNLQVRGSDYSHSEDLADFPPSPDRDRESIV
smiles,measurement,setting,value
"O=C(NCc1cc(F)c(Oc2cc(Br)cc(C(F)(F)F)c2)cc1F)c1ncns1 [Compound 1, N-(4-(3-bromo-5-(trifluoromethyl)phenoxy)-2,5-difluorobenzyl)-1,2,4-thiadiazole-5-carboxamide]",IC50,human Nav1.7 (hNav1.7) [1],294 nM
same,IC50,human Nav1.5 (hNav1.5),< 1000 nM
"CN(C)C(=O)c1cc(Oc2cc(F)c(S(=O)(=O)Nc3ncns3)cc2F)cc(C(F)(F)F)c1 [Compound 38, 3-{2,5-difluoro-4-[(1,2,4-thiadiazol-5-yl)sulfamoyl]phenoxy}-N,N-dimethyl-5-(trifluoromethyl)benzamide]",IC50,human Nav1.7 (hNav1.7) [1],1600 nM
same,IC50,human Nav1.7 (hNav1.7) [2],~17100 nM
same,IC50,human Nav1.5 (hNav1.5),> 32000 nM
"O=S(=O)(Nc1ncns1)c1cc(F)c(Oc2cc(Cl)cc(C(F)(F)F)c2)cc1F [Compound 36, 4-[3-chloro-5-(trifluoromethyl)phenoxy]-2,5-difluoro-N-(1,2,4-thiadiazol-5-yl)benzene-1-sulfonamide]",IC50,human Nav1.7 (hNav1.7) [1],256 nM
same,IC50,human Nav1.7 (hNav1.7) [2],~11900 nM
same,IC50,rat Nav1.2 (rNav1.2) [3],> 10000 nM
same,IC50,human Nav1.5 (hNav1.5),~4960 nM
"O=S(=O)(Nc1ncns1)c1cc(F)c(Oc2cc(C(F)(F)F)cc(C(F)(F)F)c2)cc1F [Compound 5, 4-[3,5-bis(trifluoromethyl)phenoxy]-2,5-difluoro-N-(1,2,4-thiadiazol-5-yl)benzene-1-sulfonamide]",IC50,human Nav1.7 (hNav1.7) [1],393 nM
same,IC50,human Nav1.7 (hNav1.7) [2],7250 nM
same,IC50,rat Nav1.2 (rNav1.2) [3],19400 nM
same,IC50,human Nav1.5 (hNav1.5),16600 nM
"NC(=O)c1cc(Oc2cc(F)c(S(=O)(=O)Nc3ncns3)cc2F)cc(C(F)(F)F)c1 [Compound 24, 3-{2,5-difluoro-4-[(1,2,4-thiadiazol-5-yl)sulfamoyl]phenoxy}-5-(trifluoromethyl)benzamide]",IC50,human Nav1.7 (hNav1.7) [1],3890 nM
same,IC50,human Nav1.7 (hNav1.7) [2],23600 nM
same,IC50,rat Nav1.2 (rNav1.2) [3],> 10000 nM
same,IC50,rat Nav1.2 (rNav1.2) [4],> 32000 nM
"COc1cc(Oc2cc(F)c(S(=O)(=O)Nc3ncns3)cc2F)cc(C(F)(F)F)c1 [Compound 34, 2,5-difluoro-4-[3-methoxy-5-(trifluoromethyl)phenoxy]-N-(1,2,4-thiadiazol-5-yl)benzene-1-sulfonamide]",IC50,human Nav1.7 (hNav1.7) [1],186 nM
same,IC50,human Nav1.7 (hNav1.7) [2],~6250 nM
same,IC50,rat Nav1.2 (rNav1.2) [3],~2740 nM
same,IC50,human Nav1.5 (hNav1.5),1600 nM
"O=S(=O)(Nc1ncns1)c1cc(F)c(Oc2cc(F)cc(C(F)(F)F)c2)cc1F [Compound 32, 2,5-difluoro-4-(3-fluoro-5-(trifluoromethyl)phenoxy)-N-(1,2,4-thiadiazol-5-yl)benzenesulfonamide]",IC50,human Nav1.7 (hNav1.7) [1],942 nM
same,IC50,human Nav1.7 (hNav1.7) [2],~21100 nM
same,IC50,rat Nav1.2 (rNav1.2) [3],> 10000 nM
same,IC50,rat Nav1.2 (rNav1.2) [4],> 32000 nM
"O=C(NCc1cc(F)c(Oc2cc(C(F)(F)F)cc(C(F)(F)F)c2)cc1F)c1nncs1 [Compound 19, N-({4-[3,5-bis(trifluoromethyl)phenoxy]-2,5-difluorophenyl}methyl)-1,3,4-thiadiazole-2-carboxamide]",IC50,human Nav1.7 (hNav1.7) [1],1380 nM
same,IC50,human Nav1.7 (hNav1.7) [2],~10200 nM
same,IC50,rat Nav1.2 (rNav1.2) [3],~1250 nM
same,IC50,rat Nav1.2 (rNav1.2) [4],5660 nM
"CCOC(=O)c1cc(Oc2cc(F)c(S(=O)(=O)Nc3ncns3)cc2F)cc(C(F)(F)F)c1 [Compound 26, ethyl 3-{2,5-difluoro-4-[(1,2,4-thiadiazol-5-yl)sulfamoyl]phenoxy}-5-(trifluoromethyl)benzoate]",IC50,human Nav1.7 (hNav1.7) [1],2130 nM
same,IC50,human Nav1.7 (hNav1.7) [2],~37200 nM
same,IC50,rat Nav1.2 (rNav1.2) [3],> 10000 nM
same,IC50,rat Nav1.2 (rNav1.2) [4],> 32000 nM
"N#Cc1cc(Oc2cc(F)c(S(=O)(=O)Nc3ncns3)cc2F)cc(C(F)(F)F)c1 [Compound 27, 4-[3-cyano-5-(trifluoromethyl)phenoxy]-2,5-difluoro-N-(1,2,4-thiadiazol-5-yl)benzene-1-sulfonamide]",IC50,human Nav1.7 (hNav1.7) [1],2170 nM
same,IC50,human Nav1.7 (hNav1.7) [2],18000 nM
same,IC50,rat Nav1.2 (rNav1.2) [3],~32000 nM
same,IC50,rat Nav1.2 (rNav1.2) [4],~32000 nM
"O=C(Cc1cccc(-c2cc(C(F)(F)F)cc(C(F)(F)F)c2)c1)Nc1ncns1 [Compound 21, 2-{3-[3,5-bis(trifluoromethyl)phenyl]phenyl}-N-(1,2,4-thiadiazol-5-yl)acetamide]",IC50,human Nav1.7 (hNav1.7) [1],~383 nM
same,IC50,rat Nav1.2 (rNav1.2) [3],~389 nM
same,IC50,human Nav1.5 (hNav1.5),550 nM
"CN(c1ncns1)S(=O)(=O)c1cc(F)c(Oc2cc(Br)cc(C(F)(F)F)c2)cc1F [Compound 2, 4-(3-bromo-5-(trifluoromethyl)phenoxy)-2,5-difluoro-N-methyl-N-(1,2,4-thiadiazol-5-yl)benzenesulfonamide]",IC50,human Nav1.7 (hNav1.7) [1],484 nM
same,IC50,human Nav1.5 (hNav1.5),> 3200 nM
"CN1CCC[C@H]1C(=O)NCc1cccc(-c2cc(C(F)(F)F)cc(C(F)(F)F)c2)c1 [Compound 57, (2S)-N-({3-[3,5-bis(trifluoromethyl)phenyl]phenyl}methyl)-1-methylpyrrolidine-2-carboxamide]",IC50,human Nav1.7 (hNav1.7) [1],160 nM
same,IC50,human Nav1.7 (hNav1.7) [2],5620 nM
same,IC50,rat Nav1.2 (rNav1.2) [3],176 nM
same,IC50,rat Nav1.2 (rNav1.2) [4],12300 nM
"O=C(NCc1cc(-c2cc(C(F)(F)F)cc(C(F)(F)F)c2)cc(C(F)(F)F)c1)[C@H]1CCCN1 [Compound 55, (R)-N-((3′,5,5′-tris(trifluoromethyl)-[1,1′-biphenyl]-3-yl)methyl)pyrrolidine-2-carboxamide]",IC50,human Nav1.7 (hNav1.7) [1],162 nM
same,IC50,human Nav1.7 (hNav1.7) [2],3610 nM
same,IC50,rat Nav1.2 (rNav1.2) [3],156 nM
same,IC50,rat Nav1.2 (rNav1.2) [4],2580 nM
"O=C(NCc1cccc(-c2cc(C(F)(F)F)cc(C(F)(F)F)c2)c1)[C@@H]1CCCN1S(=O)(=O)Nc1ccccc1 [Compound 59, (2S)-N-({3-[3,5-bis(trifluoromethyl)phenyl]phenyl}methyl)-1-(phenylsulfamoyl)pyrrolidine-2-carboxamide]",IC50,human Nav1.7 (hNav1.7) [1],153 nM
same,IC50,human Nav1.7 (hNav1.7) [2],8690 nM
same,IC50,rat Nav1.2 (rNav1.2) [3],166 nM
same,IC50,rat Nav1.2 (rNav1.2) [4],8730 nM
"O=S(=O)(Nc1ncns1)c1cc(F)c(Oc2cc(F)cc(F)c2)cc1F [Compound 28, 4-(3,5-difluorophenoxy)-2,5-difluoro-N-(1,2,4-thiadiazol-5-yl)benzene-1-sulfonamide]",IC50,human Nav1.7 (hNav1.7) [1],~3960 nM
same,IC50,human Nav1.7 (hNav1.7) [2],~37900 nM
same,IC50,rat Nav1.2 (rNav1.2) [3],> 10000 nM
same,IC50,rat Nav1.2 (rNav1.2) [4],> 32000 nM
"O=S(=O)(Nc1cccnn1)c1cc(F)c(Oc2cc(C(F)(F)F)cc(C(F)(F)F)c2)cc1F [Compound 30, 4-[3,5-bis(trifluoromethyl)phenoxy]-2,5-difluoro-N-(pyridazin-3-yl)benzene-1-sulfonamide]",IC50,human Nav1.7 (hNav1.7) [1],4840 nM
same,IC50,human Nav1.7 (hNav1.7) [2],~36000 nM
same,IC50,rat Nav1.2 (rNav1.2) [3],11400 nM
same,IC50,rat Nav1.2 (rNav1.2) [4],~25200 nM
"CS(=O)(=O)NCc1cc(F)c(Oc2cc(C(F)(F)F)cc(C(F)(F)F)c2)cc1F [Compound 20, N-({4-[3,5-bis(trifluoromethyl)phenoxy]-2,5-difluorophenyl}methyl)methane-sulfonamide]",IC50,human Nav1.7 (hNav1.7) [1],~1260 nM
same,IC50,human Nav1.7 (hNav1.7) [2],5780 nM
same,IC50,rat Nav1.2 (rNav1.2) [3],~1320 nM
same,IC50,rat Nav1.2 (rNav1.2) [4],4260 nM
"O=S(=O)(Nc1ncns1)c1cc(F)c(Oc2cc(Br)cc(C(F)(F)F)c2)cc1F [Compound 33, 4-[3-bromo-5-(trifluoromethyl)phenoxy]-2,5-difluoro-N-(1,2,4-thiadiazol-5-yl)benzene-1-sulfonamide]",IC50,human Nav1.7 (hNav1.7) [1],118 nM
same,IC50,human Nav1.7 (hNav1.7) [2],~10000 nM
same,IC50,rat Nav1.2 (rNav1.2) [3],~4910 nM
same,IC50,human Nav1.5 (hNav1.5),~4010 nM
"CCCOc1cc(Oc2cc(F)c(S(=O)(=O)Nc3ncns3)cc2F)cc(C(F)(F)F)c1 [Compound 37, 2,5-difluoro-4-[3-propoxy-5-(trifluoromethyl)phenoxy]-N-(1,2,4-thiadiazol-5-yl)benzene-1-sulfonamide]",IC50,human Nav1.7 (hNav1.7) [1],~413 nM
same,IC50,human Nav1.7 (hNav1.7) [2],~17600 nM
same,IC50,rat Nav1.2 (rNav1.2) [3],> 10000 nM
same,IC50,human Nav1.5 (hNav1.5),7210 nM
